Source: US7659404B2, “Broad spectrum 2-(substituted-amino)-benzothiazole sulfonamide HIV protease inhibitors” (Tibotec Pharmaceuticals Ltd., priority 2001, dated 2010)
Where two headings read alike, the source gives them in different places.

Assays:
virus strain F (R13025) = assay: microbe, parasite or virus in culture; format: cell-based, HIV; conditions: FR=EC50(mutant strain)/EC50(HIV-1 strain LAI); strain F
How it was run: (§1)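 MT4 cells, HIV- or mock-infected, were cultured five days with a range of inhibitor concentrations, and viability was then read by MTT conversion to formazan (isopropanol-solubilized, A540 nm). EC50/EC90 are the concentrations protecting 50%/90% of infected cells from viral cytopathic effect. Fold resistance = EC50(mutant strain)/EC50(HIV-1 LAI).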

virus strain S (R13080) = assay: microbe, parasite or virus in culture; format: cell-based, HIV; conditions: FR=EC50(mutant strain)/EC50(HIV-1 strain LAI); strain S
How it was run: as §1

[1] = system: clinically isolated HIV strain A; assay: Antiviral spectrum, cellular assay (fold resistance), strain A; format: cell-based; conditions: FR=EC50(mutant strain)/EC50(HIV-1 strain LAI)
Protocol: (§2) HIV- or mock-infected MT4 cells were incubated for five days in the presence of various concentrations of the inhibitor. At the end of the incubation period, all HIV-infected cells have been killed by the replicating virus in the control cultures in the absence of any inhibitor. Cell viability is measured by measuring the concentration of MTT, a yellow, water soluble tetrazolium dye that is converted to a purple, water insoluble formazan in the mitochondria of living cells only. Upon solubilization of the resulting formazan crystals with isopropanol, the absorbance of the solution is monitored at 540 nm. The values correlate directly to the number of living cells remaining in the culture at the completion of the five day incubation. The inhibitory activity of the compound was monitored on the virus-infected cells and was expressed as EC50 and EC90. These values represent the amount of the compound required to protect 50% and 90%, respectively, of the cells from the cytopathogenic effect of the virus. The toxicity of the compound was measured on the mock-infected cells and was expressed as CC50, which represents the concentration of compound required to inhibit the growth of the cells by 50%. The selectivity index (SI) (ratio CC50/EC50) is an indication of the selectivity of the anti-HIV activity of the inhibitor.
(§3) Because of the increasing emergence of drug resistant HIV strains, the present compounds were tested for their potency against clinically isolated HIV strains harboring several mutations. These mutations are associated with resistance to protease inhibitors and result in viruses that show various degrees of phenotypic cross-resistance to the currently commercially available drugs such as for instance saquinavir, ritonavir, nelfinavir, indinavir and amprenavir.
(§4) As a measure of the broad spectrum activity of the present compounds, the fold resistance (FR) defined as FR=EC50(mutant strain)/EC50(HIV-1 strain LAI).

[2] = system: clinically isolated HIV strain B; assay: Antiviral spectrum, cellular assay (fold resistance), strain B; format: cell-based; conditions: FR=EC50(mutant strain)/EC50(HIV-1 strain LAI)
Protocol: as §2, §3, §4

[3] = system: clinically isolated HIV strain C; assay: Antiviral spectrum, cellular assay (fold resistance), strain C; format: cell-based; conditions: FR=EC50(mutant strain)/EC50(HIV-1 strain LAI)
Protocol: as §2, §3, §4

[4] = system: clinically isolated HIV strain D; assay: Antiviral spectrum, cellular assay (fold resistance), strain D; format: cell-based; conditions: FR=EC50(mutant strain)/EC50(HIV-1 strain LAI)
Protocol: as §2, §3, §4

[5] = system: clinically isolated HIV strain E; assay: Antiviral spectrum, cellular assay (fold resistance), strain E; format: cell-based; conditions: FR=EC50(mutant strain)/EC50(HIV-1 strain LAI)
Protocol: as §2, §3, §4

[6] = system: clinically isolated HIV strain G; assay: Antiviral spectrum, cellular assay (fold resistance), strain G; format: cell-based; conditions: FR=EC50(mutant strain)/EC50(HIV-1 strain LAI)
Protocol: as §2, §3, §4

[7] = system: clinically isolated HIV strain H; format: cell-based; conditions: FR=EC50(mutant strain)/EC50(HIV-1 strain LAI)
How it was run: as §1

[8] = system: clinically isolated HIV strain I; format: cell-based; conditions: FR=EC50(mutant strain)/EC50(HIV-1 strain LAI)
How it was run: as §1

[9] = system: clinically isolated HIV strain J; format: cell-based; conditions: FR=EC50(mutant strain)/EC50(HIV-1 strain LAI)
How it was run: as §1

[10] = system: clinically isolated HIV strain O; format: cell-based; conditions: FR=EC50(mutant strain)/EC50(HIV-1 strain LAI)
How it was run: as §1

[11] = system: clinically isolated HIV strain T; format: cell-based; conditions: FR=EC50(mutant strain)/EC50(HIV-1 strain LAI)
How it was run: as §1

[12] = system: clinically isolated HIV strain K; assay: Antiviral spectrum, cellular assay (fold resistance), strain K; format: cell-based; conditions: FR=EC50(mutant strain)/EC50(HIV-1 strain LAI)
Protocol: as §2, §3, §4

[13] = system: clinically isolated HIV strain L; assay: Antiviral spectrum, cellular assay (fold resistance), strain L; format: cell-based; conditions: FR=EC50(mutant strain)/EC50(HIV-1 strain LAI)
Protocol: as §2, §3, §4

[14] = system: clinically isolated HIV strain M; assay: Antiviral spectrum, cellular assay (fold resistance), strain M; format: cell-based; conditions: FR=EC50(mutant strain)/EC50(HIV-1 strain LAI)
Protocol: as §2, §3, §4

[15] = system: clinically isolated HIV strain N; assay: Antiviral spectrum, cellular assay (fold resistance), strain N; format: cell-based; conditions: FR=EC50(mutant strain)/EC50(HIV-1 strain LAI)
Protocol: as §2, §3, §4

[16] = system: clinically isolated HIV strain P; assay: Antiviral spectrum, cellular assay (fold resistance), strain P; format: cell-based; conditions: FR=EC50(mutant strain)/EC50(HIV-1 strain LAI)
Protocol: as §2, §3, §4

[17] = system: clinically isolated HIV strain Q; assay: Antiviral spectrum, cellular assay (fold resistance), strain Q; format: cell-based; conditions: FR=EC50(mutant strain)/EC50(HIV-1 strain LAI)
Protocol: as §2, §3, §4

[18] = system: clinically isolated HIV strain R; assay: Antiviral spectrum, cellular assay (fold resistance), strain R; format: cell-based; conditions: FR=EC50(mutant strain)/EC50(HIV-1 strain LAI)
Protocol: as §2, §3, §4

HIV-1 strain LAI = assay: Cellular anti-HIV assay in MT4 cells (MTT), wild type laboratory strain; format: cell-based; conditions: read-out: EC50 value against HIV-1 strain LAI
Protocol: The compounds of the present invention were examined for anti-viral activity in a cellular assay. […] The cellular assay was performed according to the following procedure.
Cellular Assay Experimental Method:
as §2

[19] = Human immunodeficiency virus 1, 120 h, MT4 cells, five days, MTT
[20] = Human immunodeficiency virus 1, MT4, 120 h

Row | Compound | fold resistance (FR), strain F (virus strain F (R13025)) | fold resistance (FR), strain S (virus strain S (R13080)) | fold resistance (FR), strain H [7] | fold resistance (FR), strain I [8] | fold resistance (FR), strain J [9] | fold resistance (FR), strain O [10] | fold resistance (FR), strain T [11] | EC50 (HIV-1 strain LAI; [19]) [nM] | EC50 (HIV-1 strain LAI; [20]) [nM] | also measured
1 | CC(=O)Nc1nc2ccc(S(=O)(=O)N(CC(C)C)CC(O)C(Cc3ccccc3)NC(=O)OC3COC4OCCC34)cc2s1 (mixture of isomers) [Compound 1] | 0.8 | 1.0 | 0.9 | 0.8 | 0.5 | 0.4 | 5.1 | – | – | fold resistance (FR), strain A [1]: 0.4; fold resistance (FR), strain B [2]: 0.3; fold resistance (FR), strain C [3]: 0.7; fold resistance (FR), strain D [4]: 0.7; fold resistance (FR), strain E [5]: 0.6; fold resistance (FR), strain G [6]: 0.3; fold resistance (FR), strain K [12]: 0.4; fold resistance (FR), strain L [13]: 0.2; fold resistance (FR), strain M [14]: 0.5; fold resistance (FR), strain N [15]: 1.0; fold resistance (FR), strain P [16]: 0.2; fold resistance (FR), strain Q [17]: 0.8; fold resistance (FR), strain R [18]: 0.7
2 | CC(C)CN(CC(O)C(Cc1ccccc1)NC(=O)OC1COC2OCCC12)S(=O)(=O)c1ccc2nc(NC(=O)CN(C)C)sc2c1 (mixture of isomers) [Compound 3] | 1.1 | 1.8 | 1.0 | 0.8 | – | 1.0 | 34.2 | – | – | fold resistance (FR), strain A [1]: 0.4; fold resistance (FR), strain C [3]: 0.4; fold resistance (FR), strain D [4]: 0.8; fold resistance (FR), strain E [5]: 0.4; fold resistance (FR), strain G [6]: 0.4; fold resistance (FR), strain L [13]: 0.3; fold resistance (FR), strain N [15]: 2.3; fold resistance (FR), strain P [16]: 0.4; fold resistance (FR), strain Q [17]: 0.5; fold resistance (FR), strain R [18]: 0.5
3 | CC(C)CN(C[C@@H](O)[C@H](Cc1ccccc1)NC(=O)OC1COC2OCCC12)S(=O)(=O)c1ccc2nc(NCCN(C)C)sc2c1 (mixture of isomers) [Compound 4] | 2.2 | 2.9 | 1.9 | 1.2 | 0.5 | 0.5 | 48.8 | < 50 | – | –
4 | CC(C)CN(CC(O)C(Cc1ccccc1)NC(=O)OC1COC2OCCC12)S(=O)(=O)c1ccc2nc(NC(=O)CN(C)C)sc2c1 (stereo not drawn) [Compound 11] | 0.7 | 1.1 | 0.9 | 0.5 | 0.4 | 0.7 | 7.3 | < 50 | – | fold resistance (FR), strain A [1]: 0.3; fold resistance (FR), strain B [2]: 0.4; fold resistance (FR), strain C [3]: 0.5; fold resistance (FR), strain D [4]: 0.3; fold resistance (FR), strain G [6]: 0.5; fold resistance (FR), strain K [12]: 0.4; fold resistance (FR), strain L [13]: 0.3; fold resistance (FR), strain M [14]: 0.4; fold resistance (FR), strain N [15]: 1.6; fold resistance (FR), strain P [16]: 0.3; fold resistance (FR), strain Q [17]: 0.0; fold resistance (FR), strain R [18]: 0.5
5 | CC(=O)N(CCN1CCCC1)c1nc2ccc(S(=O)(=O)N(CC(C)C)CC(O)C(Cc3ccccc3)NC(=O)OC3COC4OCCC34)cc2s1 (stereo not drawn) [Compound 19] | 2.4 | 2.2 | 2.1 | 1.1 | 0.6 | 0.5 | 10.5 | < 50 | – | –
6 | CC(C)CN(CC(O)C(Cc1ccccc1)NC(=O)OC1COC2OCCC12)S(=O)(=O)c1ccc2nc(NCC[N+](C)(C)[O-])sc2c1 (stereo not drawn) [Compound 27] | 1.4 | 5.1 | 1.2 | 1.3 | 0.7 | 0.6 | 5.4 | – | > 500 | –
7 | CC(=O)Nc1nc2ccc(S(=O)(=O)N(CCNc3ccccn3)CC(O)C(Cc3ccccc3)NC(=O)OC3COC4OCCC34)cc2s1 (stereo not drawn) [Compound 29] | – | – | – | – | – | – | – | – | 50 to 500 | –
8 | CC(=O)N(C)c1nc2ccc(S(=O)(=O)N(Cc3ccccn3)CC(O)C(Cc3ccccc3)NC(=O)OCc3c(C)cccc3C)cc2s1 (stereo not drawn) [Compound 31] | – | – | – | – | – | – | – | – | > 500 | –
9 | CC(=O)N(C)c1nc2ccc(S(=O)(=O)N(Cc3ccccn3)CC(O)C(Cc3ccccc3)NC(=O)OC3COC4OCCC34)cc2s1 (stereo not drawn) [Compound 33] | 7.6 | 467.3 | 6.8 | 7.1 | 5.9 | 3.4 | 467.3 | < 50 | – | –
10 | CC(C)CN(CC(O)C(Cc1ccccc1)NC(=O)OC1COCC1N(C)C)S(=O)(=O)c1ccc2nc(NCCN(C)C)sc2c1 (stereo not drawn) [Compound 44] | 80.2 | 89.3 | 29.4 | 7.5 | 29.5 | 11.2 | 89.3 | – | 50 to 500 | –
11 | CC(C)CN(CC(O)C(Cc1ccccc1)NC(=O)OC1CCOC1)S(=O)(=O)c1ccc2nc(NCCN(C)C)sc2c1 (stereo not drawn) [Compound 56] | 33.1 | 67.1 | 4.6 | 3.2 | 2.8 | 2.1 | 509.6 | – | < 50 | –
12 | CC(=O)N(C)c1nc2ccc(S(=O)(=O)N(CC(C)C)C[C@@H](O)[C@H](Cc3ccccc3)NC(=O)c3cccc(O)c3C)cc2s1 [Compound 83] | 106.6 | 132.1 | 4.6 | 7.4 | 8.4 | 1.5 | 438.6 | – | – | –
13 | CC(=O)Nc1nc2ccc(S(=O)(=O)N(CC(C)C)C[C@@H](O)[C@H](Cc3ccccc3)NC(=O)Cc3cc(C)no3)cc2s1 [Compound 84] | 54.3 | 195.4 | 11.7 | 13.0 | 19.6 | 6.1 | 195.4 | – | – | –
14 | CCN1CCCC1CNc1nc2ccc(S(=O)(=O)N(CC(C)C)C[C@@H](O)[C@H](Cc3ccccc3)NC(=O)O[C@H]3CO[C@H]4OCC[C@H]43)cc2s1 (stereo partly drawn) [Compound 93] | 1.1 | 4.68 | – | – | – | – | – | < 50 | – | –
